21 molecules from US9814739B2, “2′-ethynyl nucleoside derivatives for treatment of viral infections” (priority 2012, dated 2017) can be followed below.

The test system of series [1] is GT1b HCV luciferase replicon. Put plainly: HCV replicon antiviral EC50 assay. In kind it is cell-based, Hepatitis C virus.
For series [2], the system named is Replicon cells, expressing the GT1b HCV luciferase replicon.
A further series has as its system Dengue virus. Put plainly: Dengue assay on cryopreserved PBMC cells (plaque reduction readout on BHK cells). In kind it is cell-based. Conditions: Dengue virus, PBMC, 48 h, human PBMC cells. The procedure:
Cryopreserved human PBMC cells were purchased from approved vendors. It was then thawed according to manufacturer's instructions and suspended in RPMI medium supplemented with 1% penicillin/streptomycin solution and 10% Fetal Calf serum. The cells were then counted and viability checked (viability should be at least 70%). After centrifuging and removing the media, the cells were diluted to 1×10^7 cells/mL in RPMI medium supplemented with 1% penicillin/streptomycin. 50 μl of the cells were then dispensed into 96-well tissue culture plate constituting 5×10^5 cells/well. Next, virus with humanized 4G2 mixture was prepared for infection. Briefly, virus (2×10^7 pfu/ml) was mixed with humanized 4G2 antibody with the final antibody concentration of 0.38 μg/ml and incubated for 30 minutes at 4° C. to assist virus/antibody complex formation. The virus-antibody complex was then added to the PBMC at multiplicity of infection (M.O.I) of 0.5. The resulting media was then and further incubated the plates at 37° C. in the humidified incubator for infection to take place. Serial diluted compounds were then added and finally media was added such that the final media volume was 200 μl with 2% Fetal Calf Serum. The plates were then incubated at 37° C., 5% CO2 for another 48 hours. The extent of the infection and compound inhibition was measured by plaque reduction assay using BHK cells. Briefly, BHK cells grown in 24-well tissue culture were subjected to supernatants derived from infection containing serial diluted compounds. After additional 4 days, the monolayer of BHK cells were fixed, stained with crystal violet stain and plaques counted. Dose response curves were plotted from the mean absorbance (n=3) versus the log of the concentration of test compounds. The EC50 is calculated by nonlinear regression analysis. A positive control (7-deaza-2′-C-acetylene-adenosine) was used to ensure the quality of the data.

A further series is described as follows: in vitro. Conditions: HCV GT1b CC50 (uM).
The nature of series [3]: 4 day CCK-8 cytotoxicity assay using THP-1 cells. Type of series: cell-based. The following applies: human, read-out: Dengue CC50 (THP-1). As for the experimental part:
3) Protocols for Automated 4 Days CCK8 (Dojindo) Cytotoxicity Assay in HepG2 and THP-1 Cells • 1. 25 μL of HepG2 suspension containing 1.6×10^4 cells/ml (400 cells/well) or 25 μL of THP-1 suspension containing 8×10^4 cells/ml (2000 cells/well) was dispensed into a clear 384-well plate by GNF dispenser 2B vertical-head. • 2. The plate was pre-incubated for 24 h in the GNF incubator (humidified, 37° C., 5% CO2). • 3. Serial-diluted compound were directly transferred into the culture media in the plate (200× dilution). • 4. Plates were incubated for 96 hours in the GNF incubator. • 5. CCK-8 was thawed on the bench-top, and was pre-diluted with media (2.5× dilutions). • 6. 35 μL of 2.5× diluted CCK8 was added to each well of the plate by GNF dispenser 1C angled-head. • 7. The plates were incubated for 3 hours in the incubator. • 8. The absorbance at 450 nm was measured by Envision. Dengue Assay on Cryopreserved PBMC Cells
THP-1 cells grown in suspension were counted and diluted to 8×10^4 cells/ml in RPMI-1640 media supplemented with 10% fetal bovine serum and 1% penicillin/streptomycin. 25 ul of the THP-1 containing media consisting of 2000 cells were dispensed in 384-well tissue culture plate and pre-incubated at room temperature for 30 minutes, followed by 37° C., 5% CO2 overnight in the humidified incubator. On the next day, serial-diluted compound plates were prepared and 125 nl of compounds at various concentrations were then dispensed into the tissue culture well (200× dilution). The plates were then transferred to 37° C., 5% CO2 humidified incubator for additional 96 hours. Cytotoxicity was measured by CCK-8 assay. Briefly, CCK-8 was thawed on bench top and diluted 2.5× with the growth media. 35 ul of the pre-diluted CCK-8 was then introduced into each well and the plates were then further incubated in 37° C., 5% CO2 humidified incubator for 3 hours. The absorbance was read by Envision at 450 nm. Dose response curves were plotted from the mean absorbance (n=2) versus the log of the concentration of test compounds. The EC50 is calculated by nonlinear regression analysis. A positive control (puromycin) was used to ensure the quality of the data.

Where [4] appears, read: Hepatitis C virus, GT1B, 72 h, read-out: HCV GT1b EC50 (uM).

Like-named read-outs stand apart in the source and are kept apart here. Where only a bound is given, the exact number is not on record here.

On to `C#C[C@@]1(O)[C@H](O)[C@@H](COP(=O)(N[C@@H](C)C(=O)OC(CCC)CCC)Oc2ccccc2)O[C@H]1n1ccc(=O)[nH]c1=O` (single isomer, unassigned) [1.34 (peak 1)], for which the half-maximal effective concentration (EC50) in series [1] (read-out: HCV GT1b EC50) is 0.301 µM. For the same molecule, in series [2], the CC50 is over 25 µM.

Consider `C#C[C@@]1(O)[C@H](O)[C@@H](COP(=O)(N[C@@H](C)C(=O)OC2CCCCC2)Oc2ccc(Cl)cc2)O[C@H]1n1ccc(=O)[nH]c1=O` (stereo partly drawn) [Example 1.7, (2S)-cyclohexyl 2-(((4-chlorophenoxy)(((2R,3R,4R,5R)-5-(2,4-dioxo-3,4-dihydropyrimidin-1(2H)-yl)-4-ethynyl-3,4-dihydroxytetrahydrofuran-2-yl)methoxy)phosphoryl)amino)propanoate], for which the half-maximal effective concentration (EC50) stood at 0.087 µM in series [1] (setting [4]) and 0.17 µM in the series on Dengue virus. Moreover, the CC50 in “in vitro” was over 25 µM. The CC50 at 96 h in series [3] was determined as 13 µM.

With `C#C[C@@]1(O)[C@H](O)[C@@H](COP(=O)(N[C@@H](CC(C)C)C(=O)OC(C)C)Oc2ccccc2)O[C@H]1n1ccc(=O)[nH]c1=O` (single isomer, unassigned) [1.23 (peak 1)], the EC50 in series [1] (read-out: HCV GT1b EC50) is 2.72 µM. In series [2], this molecule showed a CC50 of over 25 µM.

In the case of `C#C[C@@]1(O)[C@H](O)[C@@H](COP(=O)(N[C@@H](C)C(=O)OC(CC)CC)Oc2ccccc2)O[C@H]1n1ccc(=O)[nH]c1=O` (single isomer, unassigned) [1.16 (peak 1)], the EC50 in series [1] (read-out: HCV GT1b EC50) amounted to 0.34 µM. The CC50 in series [2] is over 25 µM.

On to `C#C[C@@]1(O)[C@H](O)[C@@H](COP(=O)(N[C@@H](C)C(=O)OC2CCOCC2)Oc2ccccc2)O[C@H]1n1ccc(=O)[nH]c1=O` (single isomer, unassigned) [1.14 (peak 1)], for which the EC50 in series [1] (read-out: HCV GT1b EC50) came out at 1.15 µM. Further, in series [2], the CC50 is over 25 µM.

In the case of `C#C[C@@]1(O)[C@H](O)[C@@H](COP(=O)(N[C@@H](C)C(=O)OCOC(C)=O)Oc2ccccc2)O[C@H]1n1ccc(=O)[nH]c1=O` (single isomer, unassigned) [1.17 (peak 1)], the EC50 in series [1] (read-out: HCV GT1b EC50) was 6.8 µM. In series [2], this molecule came in with a CC50 of over 25 µM.

In the case of `C#C[C@@]1(O)[C@H](O)[C@@H](COP(=O)(N[C@@H](C)C(=O)O[C@@H](C)CC)Oc2ccccc2)O[C@H]1n1ccc(=O)[nH]c1=O` (single isomer, unassigned) [1.13 (peak 1)], the EC50 in series [1] (read-out: HCV GT1b EC50) amounted to 0.302 µM. For the same molecule, the CC50 in series [2] was over 25 µM.

In the case of `C#C[C@@]1(O)[C@H](O)[C@@H](COP(=O)(N[C@@H](C)C(=O)OC(CC)CC)Oc2ccc(Cl)cc2)O[C@H]1n1ccc(=O)[nH]c1=O` (stereo partly drawn) [Example 1.4, (2S)-pentan-3-yl 2-(((4-chlorophenoxy)(((2R,3R,4R,5R)-5-(2,4-dioxo-3,4-dihydropyrimidin-1(2H)-yl)-4-ethynyl-3,4-dihydroxytetrahydrofuran-2-yl)methoxy)phosphoryl)amino)propanoate], the EC50 is 0.087 µM in series [1] (setting [4]) and 0.06 µM with Dengue virus. Moreover, the CC50 in the series “in vitro” is over 25 µM. In addition, the CC50 at 96 h in series [3] was over 50 µM.

`C#C[C@@]1(O)[C@H](O)[C@@H](COP(=O)(N[C@@H](C)C(=O)OC2CCC2)Oc2ccccc2)O[C@H]1n1ccc(=O)[nH]c1=O` (single isomer, unassigned) [1.11 (peak 1)]: the concentration for a half-maximal effect (EC50) in series [1] (read-out: HCV GT1b EC50) turned out to be 0.1 µM. In addition, in series [2], the CC50 was over 25 µM.

Consider `C#C[C@@]1(O)[C@H](O)[C@@H](COP(=O)(N[C@@H](C)C(=O)O[C@H](C)CC)Oc2ccc(Cl)cc2)O[C@H]1n1ccc(=O)[nH]c1=O` (stereo partly drawn) [Example 1.3, (2S)-(R)-sec-butyl 2-(((4-chlorophenoxy)(((2R,3R,4R,5R)-5-(2,4-dioxo-3,4-dihydropyrimidin-1(2H)-yl)-4-ethynyl-3,4-dihydroxytetrahydrofuran-2-yl)methoxy)phosphoryl)amino)propanoate], for which the half-maximal effective concentration (EC50) in series [1] (setting [4]) is 0.095 µM; in the series on Dengue virus, 0.06 µM. In addition, the CC50 in the series “in vitro” is over 25 µM. For the same molecule, the CC50 at 96 h in series [3] amounted to 16 µM.

For `C#C[C@@]1(O)[C@H](O)[C@@H](COP(=O)(NC(C)(C)C(=O)OCC)Oc2ccccc2)O[C@H]1n1ccc(=O)[nH]c1=O` (single isomer, unassigned) [1.37 (peak 1)], in series [1] (read-out: HCV GT1b EC50), the EC50 was determined as 0.367 µM. Also, the CC50 in series [2] was over 25 µM.

`C#C[C@@]1(O)[C@H](O)[C@@H](COP(=O)(N[C@@H](C)C(=O)OCC(C)(C)OC)Oc2ccccc2)O[C@H]1n1ccc(=O)[nH]c1=O` (single isomer, unassigned) [1.32 (peak 1)]: in series [1] (read-out: HCV GT1b EC50), the half-maximal effective concentration (EC50) is 0.53 µM. For the same molecule, the CC50 in series [2] was over 25 µM.

Consider `C#C[C@@]1(O)[C@H](O)[C@@H](COP(=O)(N[C@@H](C)C(=O)OC(C)C)Oc2ccccc2)O[C@H]1n1ccc(OC)nc1=O` (single isomer, unassigned) [1.28 (peak 1)], for which, in series [1] (read-out: HCV GT1b EC50), the concentration for a half-maximal effect (EC50) was over 100 µM. In series [2], this molecule yielded a CC50 of over 25 µM.

For `C#C[C@@]1(O)[C@H](O)[C@@H](COP(=O)(NCCOC(=O)c2ccccc2)Oc2ccccc2)O[C@H]1n1ccc(=O)[nH]c1=O` (single isomer, unassigned) [1.18 (peak 1)], in series [1] (read-out: HCV GT1b EC50), the EC50 is 0.08 µM. The molecule also gave a CC50 in series [2] of over 25 µM.

Turning to `C#C[C@@]1(O)[C@H](O)[C@@H](COP(=O)(N[C@@H](C)C(=O)OCC(C)(C)C)Oc2ccccc2)O[C@H]1n1ccc(=O)[nH]c1=O` (single isomer, unassigned) [1.33 (peak 1)], the EC50 in series [1] (read-out: HCV GT1b EC50) turned out to be 0.081 µM. In series [2], this molecule displayed a CC50 of 19.7 µM.

Consider `C#C[C@@]1(O)[C@H](O)[C@@H](COP(=O)(N[C@@H](C)C(=O)O[C@H](C)CC)Oc2ccccc2)O[C@H]1n1ccc(=O)[nH]c1=O` (single isomer, unassigned) [1.15 (peak 1)], for which the EC50 in series [1] (read-out: HCV GT1b EC50) turned out to be 0.172 µM. Moreover, the CC50 in series [2] was over 25 µM.

With `C#C[C@@]1(O)[C@H](O)[C@@H](COP(=O)(N[C@@H](Cc2ccccc2)C(=O)OC(C)C)Oc2ccccc2)O[C@H]1n1ccc(=O)[nH]c1=O` (single isomer, unassigned) [1.10 (peak 1)], the EC50 in series [1] (read-out: HCV GT1b EC50) was 2.87 µM. Also, the CC50 in series [2] is over 25 µM.

Consider `C#C[C@@]1(O)[C@H](O)[C@@H](COP(=O)(NC(C)(C)C(=O)OC(C)C)Oc2ccccc2)O[C@H]1n1ccc(=O)[nH]c1=O` (single isomer, unassigned) [1.39 (peak 1)], for which the concentration giving a half-maximal response (EC50) in series [1] (read-out: HCV GT1b EC50) came to 1.5 µM. The molecule also displayed a CC50 in series [2] of over 25 µM.

Consider `C#C[C@@]1(O)[C@H](O)[C@@H](COP(=O)(N[C@@H](C)C(=O)OC2CCCC2)Oc2ccccc2)O[C@H]1n1ccc(=O)[nH]c1=O` (single isomer, unassigned) [1.31 (peak 1)], for which, in series [1] (read-out: HCV GT1b EC50), the EC50 was 0.024 µM. The same molecule returned a CC50 in series [2] of over 25 µM.

Turning to `C#C[C@@]1(O)[C@H](O)[C@@H](COP(=O)(N[C@@H](CC)C(=O)OC(C)C)Oc2ccccc2)O[C@H]1n1ccc(=O)[nH]c1=O` (single isomer, unassigned) [1.38 (peak 1)], in series [1] (read-out: HCV GT1b EC50), the EC50 was found to be 0.37 µM. In series [2], this molecule registered a CC50 of over 25 µM.

As for `C#C[C@@]1(O)[C@H](O)[C@@H](COP(=O)(N[C@@H](CCC)C(=O)OC(C)C)Oc2ccccc2)O[C@H]1n1ccc(=O)[nH]c1=O` (single isomer, unassigned) [1.24 (peak 1)], the 50% effective concentration (EC50) in series [1] (read-out: HCV GT1b EC50) was 0.89 µM. For the same molecule, in series [2], the CC50 was over 25 µM.

As usually defined, the EC50 is the concentration at which the effect is half-maximal.
